# Values of other authors, collected in patent US20180092930A1, “METHODS OF DIAGNOSING AND TREATING ABIRATERONE ACETATE- GLUCOCORTICOID -RESISTANT OR -SENSITIVE METASTATIC CASTRATION RESISTANT PROSTATE CANCER” (Janssen Pharmaceutica NV, priority 2016, published 2018).
# Where two headings read alike, the source gives them in different places.
# Assays:
# CRPC = conditions: pooled patients treated with AA or enzalutamide
# [1] = system: castration-resistant prostate cancer
Compound,OS (CRPC; ARV7+ at baseline) [months],OS (CRPC; ARV7- at baseline),PSA response rate ([1]; ARV7-negative patients) [%],"PSA-PFS, median ([1]; ARV7-negative patients)","clinical or radiographic progression-free survival, median ([1]; ARV7-negative patients)","overall survival, median ([1]; ARV7-negative patients)",PSA response rate ([1]; ARV7-positive patients) [%],"PSA-PFS, median ([1]; ARV7-positive patients) [months]","clinical or radiographic progression-free survival, median ([1]; ARV7-positive patients) [months]","overall survival, median ([1]; ARV7-positive patients) [months]"
CNC(=O)c1ccc(N2C(=S)N(c3ccc(C#N)c(C(F)(F)F)c3)C(=O)C2(C)C)cc1F [enzalutamide],8,not reached,–,–,–,–,–,–,–,–
CC(=O)O[C@H]1CC[C@@]2(C)C(=CC[C@@H]3[C@@H]2CC[C@]2(C)C(c4cccnc4)=CC[C@@H]32)C1 [abiraterone acetate],8,not reached,68,not reached,not reached,not reached,0,1.3,2.3,10.6
